“Also recorded” adds a separate entry of the source. Like-named read-outs stand apart in the source and are kept apart here.
Key:
[1] = target: T1, human rI-domain (Homo sapiens, UniProt P11215); test: Surface plasmon resonance, immobilized human rI-domain; format: binding
T1 construct: Recombinant human and mouse I-domain proteins were made and purified as previously described; made in house
Method: (§1) SPR analyses were performed using a Biacore S200 system (GE Healthcare Life Sciences, Parramatta, NSW, Australia). Samples were analyzed at 25°C in phosphate-buffered saline (PBS) at a flow rate of 10 μl/min and by using single-cycle kinetics. Human rI-domain, mouse rI-domain, and human rCR3 were immobilized onto separate cells of a Series S CM5 sensor chip using an NHS capture kit (both from GE Healthcare Life Sciences) for purified pilin experiments. For experiments in which pilin-glycan-like structures were examined, human rI-domain and rCR3 were immobilized onto separate cells of a CM5 chip. A blank immobilization was used as a control/reference on all chips. MS11 wild-type and MS11 pglA pilin were serially diluted from 2 μM to 0.125 μM in PBS. Glycans (Dextra Laboratories, Reading, UK) (Table 2), resembling the gonococcal Gal(α1-3)diNAcBac pilin-linked glycan, were serially diluted from 2 μM to 0.0078 μM in PBS. Affinity data points were taken at 15 s after injection to avoid an artefactual signal resulting from bulk transport. SPR sensorgrams were analyzed using Biacore Evaluation software (GE Healthcare Life Sciences).

[2] = target: T2, human rCR3 (integrin αMβ2) (Homo sapiens, UniProt P05107+P11215); test: Surface plasmon resonance, immobilized human rCR3; format: binding
T2 construct: purchased R&D Systems
Method: as §1

[3] = target: T3, G2 peptide (Homo sapiens, UniProt P11215); test: SPR of glycans over immobilized biotin-AhxG2-streptavidin complex; format: binding; details: for KD, G2 Peptide: synthetic glycans over biotin-Ahx-labeled G2 peptide complexed with streptavidin, NCDI = no concentration-dependent interaction
T3 construct: corresponds to amino acids Arg197 to Pro211 of human CD11b
Method: To assess the kinetics of the selected peptides, biotinylated versions of each peptide were synthesized. This enabled immobilization via streptavidin onto Series S CM5 sensor chips. Purified biotin-AhxG2 (G2 peptide with a six-carbon spacer linked to biotin) (Table S1), was incubated with streptavidin (Sigma, Castle Hill, NSW, Australia) for 2 h on ice at a 12:1 molar ratio of peptide to protein. Unreacted peptide was removed using a 10-kDa-molecular-weight-cutoff size exclusion column (EMD Millipore, Bayswater, VIC, Australia). Semi-native SDS-PAGE analysis was used to confirm peptide binding to streptavidin. To this end, streptavidin-peptide complexes were added to nonreducing NuPAGE sample buffer (Life Technologies, Scoresby, VIC, Australia). To ensure that peptide-streptavidin complexes were not denatured, heat was not applied before loading onto SDS-polyacrylamide 4% to 12% gradient gels (Life Technologies). A streptavidin-biotin complex was used as a reference control for the molecular weight shift that could be attributed to the peptide. Serially diluted glycans (1 μM to 0.0625 μM) were flowed over sensor chips. Other aspects of SPR analysis were as described above.

[4] = system: N. gonorrhoeae adherence to CHO-CR3 cells; test: Fluorometric adherence assay, CHO-CR3 cells; format: cell-based, Chinese hamster; details: for Gonococcal adherence to CHO-CR3 cells (fluorescence): 1-h infection with GFP-expressing N. gonorrhoeae, competitor added simultaneously
Method: (§2) Fluorometric adherence assays were performed essentially as described previously ([36]). In brief, N. gonorrhoeae MS11 gfp was used to challenge (1 h) Pex or CHO cells simultaneously with peptide or drug competitor. Infected (devoid of peptide or drug) and uninfected (with peptide, drug, or dimethyl sulfoxide [DMSO] vehicle) control cell assays were treated in parallel with competitive peptide/drug inhibition assays. Fluorescence (485 nm excitation, 528 nm emission) intensity, corresponding to bacterial adherence, was recorded using a Synergy HT multimode microplate reader (BioTek Instruments, Winooski, VT, USA). Blank wells, devoid of Pex or CHO cells, were inoculated with bacteria and served as a control for nonspecific binding. Each assay was performed in triplicates on 3 separate occasions. Peptides used are described in Table S1. A nonparametric analysis of variance (ANOVA) was used to determine the statistical significance of the calculated mean of bacterial adherence.

[5] = system: N. gonorrhoeae adherence to Pex cells; test: Fluorometric adherence assay, Pex cells; format: cell-based, human; details: for Gonococcal adherence to Pex cells (fluorescence): 1-h infection with GFP-expressing N. gonorrhoeae, competitor added simultaneously
Method: as §2

[6] = target: T1, human rI-domain; test: Competitive SPR peptide library screen with galactobiose, rI-domain; format: binding; details: peptide-galactobiose molar ratio 25:1
Excerpt: (§3) The human I-domain sequence (NP_000623.2, amino acids Gly127 to Ala325 of CD11b) was used to generate a peptide library (Mimotopes; Mulgrave, VIC, Australia). Each peptide comprised 15 amino acids, with a 5-amino-acid sliding window, to give a 10-amino-acid overlap down the sequence, for a total of 40 peptides (see Table S1 in the supplemental material). Competitive SPR (Biacore T200 system; GE Healthcare Life Sciences) was used to screen the blocking potential of the peptide library. To this end, 100 μg/ml of each peptide was mixed with […] (2 μM) α1-3 galactobiose and flowed over immobilized human rI-domain and rCR3 on a Series S CM5 chip. Flow cell 1 was a blank immobilization/reference cell. Blocking peptides were defined as those peptides in which the peptide plus glycan response was less than those for the peptide and glycan alone. SPR sensorgrams were analyzed as noted above.

[7] = target: T4, rCR3 (Homo sapiens, UniProt P11215); test: Competitive SPR peptide library screen with galactobiose, rCR3; format: binding; details: peptide-galactobiose molar ratio 25:1
T4 construct: purchased R&D Systems
Excerpt: as §3

[8] = target: T5, human rCR3 (integrin αMβ2) (Homo sapiens, UniProt P11215); test: Surface plasmon resonance, immobilized human rCR3; format: binding
T5 construct: purchased R&D Systems
Method: as §1

[9] = system: N. gonorrhoeae infection of Pex cells
Method: Infection studies were performed as previously described with modification using a multiplicity of infection of 100 ([44]). To establish infection before treatment, Pex cells were challenged with N. gonorrhoeae for 90 min. The infection medium was then removed, the cells were rinsed thrice, and fresh medium containing 0.1% DMSO (vehicle control), carbamazepine (100 pM to 100 μM), methyldopa (100 pM to 100 μM), or ceftriaxone (0.1 μg/ml or 0.5 μg/ml, positive control) was added. Infections then proceeded for an additional 24 h or 48 h, after which, the infection medium was removed. Pex cell monolayers were subsequently lysed, serial dilutions of the Pex cell lysates were plated, and viable gonococci were enumerated by counting CFU after 48 h of incubation (37°C, 5% CO2). For sequential infection assays, viable bacterial colonies that survived a treatment assay were harvested from the enumeration (CFU) plates and used to inoculate new Pex cell monolayers. For these sequential assays, each infection (the original infection or the infection with bacteria that had survived the original infection) proceeded for 24 h. Pex cells were then processed, and bacteria were enumerated, as described above. For all assays, the percentage of N. gonorrhoeae that survived carbamazepine, methyldopa, or ceftriaxone treatment was determined as a function of bacteria that survived DMSO treatment (set to 100%). All assays were performed in triplicates on 3 separate occasions. A nonparametric ANOVA was used to determine the statistical significance of bacterial survival.

[10] = system: N. gonorrhoeae strains; test: Well diffusion assay; format: cell-based, Neisseria gonorrhoeae; details: 100 pM to 100 μM in wells, overnight
Method: Well diffusion assays were performed essentially as described previously ([56]). Briefly, N. gonorrhoeae strains were spread uniformly across the surfaces of GC agar plates at a culture density of 10^7 bacteria per ml. Wells were then punctured within the agar surface to which carbamazepine or methyldopa (100 pM to 100 μM), 0.2 μg/ml ceftriaxone, 10 μg/ml ciprofloxacin, or 1% DMSO (vehicle control) was added. Following an overnight incubation (37°C, 5% CO2), inhibition of N. gonorrhoeae growth was measured as the diameter (in millimeters) of the area of clearing surrounding (and inclusive of) each well on each agar plate, i.e., the zone of inhibition (ZOI). For agar plates in which a ZOI was not visible, data were recorded as the diameter of the well (6 mm). Assays were performed in triplicates on 3 separate occasions. Statistical significance of data obtained was determined using a Student's t test.

[11] = target: T1, human rI-domain; test: Repurposed drug SPR against human CR3 I-domain (single-cycle kinetics); details: 10 nM to 0.625 nM, read-out: KD, binding to human rI-domain
Method: Human rI-domain was immobilized onto a CM5 sensor chip with a blank control flow cell as described above. A combination of two FDA-approved drug libraries, Microsource-CPOZ (2,400 drugs) and ML Drug (741 drugs), was purchased from Compounds Australia. […] A single-concentration injection screen (yes/no) binding assay was performed. Binding was determined based on the response unit shift (equal to the molecular weight-corrected response units of the positive-control glycan) of the stability of the binding phase of the dissociation cycle. […] For carbamazepine and methyldopa, saturation occurred between 1.6 nM and 8 nM, and so a new concentration range (10 nM to 0.625 nM) was tested. […] All SPR sensorgrams and result plots described above were analyzed with Biacore S200 evaluation software (GE Healthcare Life Sciences). A literature review was used to evaluate the remaining drugs for known long-term safety in humans and known therapeutic concentrations.

[12] = target: T1, human rI-domain; test: Direct competition SPR, drug versus N. gonorrhoeae MS11 pilin; format: binding; details: drug and pilin at 1 μM
[13] = system: N. gonorrhoeae adherence to CHO-neo cells; test: Fluorometric adherence assay, CHO-neo cells; format: cell-based, Chinese hamster; details: 1-h infection; cells do not express CR3
Method: as §2

[14] = synthetic glycans, NCDI = no interaction at any concentration between 0.0078 μM and 2 μM, read-out: KD, rI-domain
[15] = synthetic glycans, NCDI = no interaction at any concentration between 0.0078 μM and 2 μM, read-out: KD, rCR3
[16] = synthetic glycans, NCDI = no interaction at any concentration between 0.0078 μM and 2 μM

Molecule: OC[C@H]1O[C@@H](O[C@H]2[C@H](O)[C@@H](O)[C@H](O)O[C@@H]2CO)[C@H](O)[C@@H](O)[C@H]1O [Lactose]
- Kd [1, 14]: 117 ± 13.3 nM
- Kd [2, 15]: 138 ± 33.7 nM

Molecule: CO[C@H]1O[C@H](CO)[C@H](O)[C@H](O)[C@H]1O [Methyl-α-D-galactose]
- Kd [1, 14]: 269 ± 85.1 nM
- Kd [3]: 118 ± 11.8 nM
- Kd [2, 15]: 56.5 ± 19.8 nM

Molecule: H-RIHFTFKEFQNNPNP-OH [G2]
- Gonococcal adherence to CHO-CR3 cells, difference from uninfected cells ([4]; 100 μM peptide, P ≥ 0.67): not significantly
- Gonococcal adherence to CHO-CR3 cells (fluorescence) [4]: decreased; also recorded: dose-dependent reduction
- Gonococcal adherence to Pex cells, difference from uninfected cells ([5]; 100 μM peptide, P ≥ 0.45): not significantly
- Gonococcal adherence to Pex cells (fluorescence) [5]: decreased; also recorded: dose-dependent reduction
- Blocking of galactobiose binding to rI-domain [6]: able to block
- Blocking of galactobiose binding to rCR3 [7]: able to block

Molecule: H-CATFTAPGRTSTFSF-OH [P2, H-CATFTAPGRTSTFSF-OH]
- Gonococcal adherence to CHO-CR3 cells (fluorescence) [4]: nonblocking
- Gonococcal adherence to Pex cells (fluorescence) [5]: nonblocking

Molecule: OCC1OC(OC2C(O)C(CO)OC(OC3C(CO)OC(OC4C(O)C(O)OC(CO)C4O)C(O)C3O)C2O)C(O)C(O)C1O (stereo not drawn) [α1-3,β1-4,α1-3 Galactotetraose]
- Kd [1, 14]: 320 ± 67.2 nM
- Kd [8, 15]: 26.2 ± 9.18 nM

Molecule: MS11 wild type: N. gonorrhoeae MS11 pilin modified with the Gal(α1-3)diNAcBac disaccharide glycan
- Kd ([8]; purified pilin 0.125-2 μM, NCDI = no concentration-dependent interaction (no binding of ≤2 μM), read-out: KD, Human CR3): 907 ± 43.8 nM

Molecule: OCC1OC(OC2C(O)C(O)OC(CO)C2O)C(O)C(O)C1O (centres unmarked) [Galactobiose]
- Kd [1]: 229 ± 73.1 nM
- Kd [3]: 174 ± 45.1 nM
- Kd [2]: 68.7 ± 1.75 nM

Molecule: OC[C@H]1O[C@@H](O[C@H]2[C@H](O)[C@@H](O)[C@@H](O)O[C@@H]2CO)[C@H](O)[C@@H](O)[C@H]1O [αLactose]
- Kd [1, 14]: 202 ± 54.4 nM
- Kd [2, 15]: 79.8 ± 15 nM

Molecule: H-CNNPSSTVPHNVDFH-OH [P1]
- Gonococcal adherence to CHO-CR3 cells (fluorescence) [4]: nonblocking
- Gonococcal adherence to Pex cells (fluorescence) [5]: nonblocking

Molecule: CC(=O)NC1C(O)OC(CO)C(OC2OC(CO)C(OC3OC(CO)C(O)C(O)C3O)C(O)C2O)C1O (centres unmarked) [P1 Antigen]
- Kd [1, 14]: 202 ± 48.7 nM
- Kd [2, 15]: 48.3 ± 14.2 nM

Molecule: C[C@](N)(Cc1ccc(O)c(O)c1)C(=O)O [methyldopa]
- N. gonorrhoeae strain MS11 survival ([9]; 24 h posttreatment, 100 pM to 100 μM): dose-dependent reductions
- Numbers of viable gonococci, low-passage-number gonococcal isolates ([9]; 24 h posttreatment, established Pex cell infections): significant reductions
- Efficacy in treating multidrug-resistant gonococci compared with ceftriaxone ([9]; panel of multidrug-resistant N. gonorrhoeae isolates): more effective than ceftriaxone
- Gonococcal adherence to CHO-CR3 cells (fluorescence) [4]: decreased in a dose-dependent manner; also recorded: CR3- and dose-dependent reduction
- Gonococcal adherence to Pex cells (fluorescence) [5]: decreased in a dose-dependent manner
- Gonococcal adherence to Pex cells (fluorescence) ([5]; listed as Methyldopa): dose-dependent decrease
- Effect on gonococcal viability in the absence of Pex cells (zone of inhibition) [10]: no effect; also recorded: neither carbamazepine nor methyldopa had an effect
- Kd [11]: 1.01 nM
- Blocking of the interaction of N. gonorrhoeae MS11 pilin with rCR3 or rI-domain [12]: completely blocked
- Gonococcal adherence to CHO-neo cells (fluorescence) [13]: but not to CHO-neo cells

Molecule: OC[C@H]1O[C@@](CO)(O[C@H]2O[C@H](CO)[C@@H](O)[C@H](O)[C@H]2O)[C@@H](O)[C@@H]1O [Sucrose]
- KD, rI-domain [1, 16]: did not bind and NCDI
- KD, G2 Peptide [3]: NCDI
- KD, G2 Peptide ([3]; listed as sucrose): no concentration-dependent interaction
- KD, rCR3 [8, 16]: did not bind and NCDI

Molecule: CC(=O)NC1C(O)OC(CO)C(OC2OC(CO)C(O)C(OC3OC(CO)C(O)C(O)C3O)C2O)C1O (centres unmarked) [Linear B-2 Trisaccharide]
- Kd [1, 14]: 293 ± 13.1 nM
- Kd [2, 15]: 44.8 ± 18.1 nM

— publication PMC7064771, “Repurposed Drugs That Block the Gonococcus-Complement Receptor 3 Interaction Can Prevent and Cure Gonococcal Infection of Primary Human Cervical Epithelial Cells” (mBio, 2020)
